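In this assay, cells in 96-well plates receive the compound at five concentrations for 48 hours. Endpoints are linearly interpolated between the surrounding concentrations. TGI is the concentration that stops growth completely.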
What was measured:
Experiment in all cases: DTP human tumour cell line panel, 48 h
HCT-15 colon = system: HCT-15 colon
NCI-H460 lung = system: NCI-H460 lung
NCI-H23 lung = system: NCI-H23 lung
SF-295 CNS = system: SF-295 CNS
SF-268 CNS = system: SF-268 CNS
UACC-257 melanoma = system: UACC-257 melanoma
OVCAR-5 ovarian = system: OVCAR-5 ovarian
HT29 colon = system: HT29 colon
NCI-H226 lung = system: NCI-H226 lung
M14 melanoma = system: M14 melanoma

Structure (SMILES)	TGI (HCT-15 colon)	TGI (NCI-H460 lung)	TGI (NCI-H23 lung)	TGI (SF-295 CNS)	TGI (SF-268 CNS)	TGI (UACC-257 melanoma)	TGI (OVCAR-5 ovarian)	TGI (HT29 colon)	TGI (NCI-H226 lung)	TGI (M14 melanoma)
CC1OC(O[C@H]2CC[C@]3(C=O)[C@H]4CC[C@]5(C)[C@H](C6=CC(=O)OC6)CC[C@]5(O)[C@@H]4C=C[C@]3(O)C2)CC(O)C1O (stereo not given in full)	0.62 µM	0.423 µM	0.494 µM	0.489 µM	0.589 µM	1.82 µM	1.42 µM	1.5 µM	1.33 µM	0.761 µM
COc1cc(C23OCC(Cc4cc5c(cc42)OCO5)C3CO)cc(OC)c1OC (stereo not given)	> 100 µM	> 100 µM	> 100 µM	> 22.5 µM	> 100 µM	> 100 µM	> 100 µM	> 100 µM	> 100 µM	> 100 µM
COC(=O)C1C(C(=O)OC)C1(Br)CBr (stereo not given)	38.7 µM	> 100 µM	> 100 µM	> 100 µM	> 100 µM	> 100 µM	> 100 µM	63.3 µM	> 100 µM	> 100 µM
CCN(CC)COC(=S)S	> 100 µM	> 100 µM	> 100 µM	> 100 µM	> 100 µM	> 76.3 µM	> 100 µM	> 100 µM	> 100 µM	> 100 µM
CC(C)CN(CC#N)CC(C)C	> 100 µM	> 100 µM	> 100 µM	> 100 µM	> 100 µM	> 100 µM	> 100 µM	> 100 µM	> 100 µM	> 100 µM
O=[N+]([O-])c1cccc2nc3ccccc3c(NCCCN3CCCCC3)c12	0.109 µM	< 0.0134 µM	0.0231 µM	0.0605 µM	0.199 µM	0.0446 µM	0.0669 µM	0.326 µM	0.0553 µM	0.0232 µM
O=[As](O)(O)c1ccc2nc3cc([As](=O)(O)O)ccc3nc2c1	> 100 µM	> 100 µM	> 100 µM	> 100 µM	> 100 µM	> 100 µM	> 100 µM	> 100 µM	> 100 µM	> 100 µM
N#Cc1c(-c2ccccc2)c(C#N)c(=O)n(C2OC(CO)C(O)C(O)C2O)c1S (stereo not given)	> 100 µM	> 100 µM	> 100 µM	> 100 µM	> 100 µM	> 100 µM	> 100 µM	> 100 µM	> 100 µM	> 100 µM
CC(=O)Oc1c2oc3cc(O)c(O)cc3c2c(OC(C)=O)c2oc3cc(O)c(O)cc3c12	72.3 µM	32.7 µM	7.38 µM	30.3 µM	51 µM	38.8 µM	56.3 µM	70.9 µM	39.2 µM	> 100 µM
O=c1[nH]c(=O)n(C/C=C/CBr)nc1Br	27.9 µM	37 µM	25.5 µM	31.1 µM	28.5 µM	24.9 µM	31.1 µM	26.1 µM	27.8 µM	27.6 µM
O=C1C(Cl)C(c2cc3cc(Br)ccc3nc2Cl)N1c1c(Cl)cccc1Cl (stereo not given)	> 25 µM	> 25 µM	> 25 µM	> 25 µM	> 25 µM	> 25 µM	> 25 µM	> 25 µM	> 25 µM	> 25 µM
[O-][n+]1c(-c2ccccc2)c2nc3ccccc3nc2c2ccccc21	> 100 µM	> 100 µM	> 100 µM	> 100 µM	> 100 µM	> 100 µM	> 100 µM	> 100 µM	> 100 µM	> 100 µM
O=S(=O)(OI(O)CC(F)(F)F)C(F)(F)F	> 100 µM	> 100 µM	> 100 µM	> 100 µM	> 100 µM	> 100 µM	> 100 µM	> 100 µM	> 100 µM	> 100 µM
Cc1ccc(-c2cc(-c3c(C)nn(C)c(=O)c3N)[nH]n2)cc1	> 100 µM	> 100 µM	> 100 µM	> 100 µM	> 100 µM	> 100 µM	> 100 µM	> 100 µM	> 100 µM	> 100 µM
c1ccc(C2=Nc3cccc4cccc(c34)N2)cc1	> 96.1 µM	> 100 µM	> 100 µM	> 100 µM	> 90.6 µM	> 100 µM	> 100 µM	> 100 µM	> 100 µM	> 100 µM
CCCCCCCCCc1c(O)c(O)c(CCCCCCCCC)c(CCCCCCCCC)c1CCCCCCCCC	> 100 µM	> 100 µM	> 100 µM	> 100 µM	> 100 µM	> 100 µM	> 100 µM	> 100 µM	> 100 µM	> 100 µM
